Data: publication PMC3563301 (Journal of medicinal chemistry, 2012)

Tests used:
[1] = system: U87MG cells; assay: Loss of mitochondrial potential; type: cell-based, human; conditions: 30 μM, 24 h, JC-1
[2] = system: HeLa, HT29, A549, HCT 116, and HCT 15 cell lines; assay: Average growth inhibition over five cell lines; type: cell-based; conditions: Homo sapiens, read-out: average IC50 for the five cell lines, HeLa, HT-29, A549, HCT 116, HCT 15; for comparative purposes
[3] = target: CYP2D6 (Homo sapiens, UniProt P10635); assay: CYP450 inhibition, CYP2D6; type: biochemical; conditions: recombinant CYP2D6 (Supersomes, Gentest), pH 7.4
Chain of CYP2D6 (P10635 whole entry): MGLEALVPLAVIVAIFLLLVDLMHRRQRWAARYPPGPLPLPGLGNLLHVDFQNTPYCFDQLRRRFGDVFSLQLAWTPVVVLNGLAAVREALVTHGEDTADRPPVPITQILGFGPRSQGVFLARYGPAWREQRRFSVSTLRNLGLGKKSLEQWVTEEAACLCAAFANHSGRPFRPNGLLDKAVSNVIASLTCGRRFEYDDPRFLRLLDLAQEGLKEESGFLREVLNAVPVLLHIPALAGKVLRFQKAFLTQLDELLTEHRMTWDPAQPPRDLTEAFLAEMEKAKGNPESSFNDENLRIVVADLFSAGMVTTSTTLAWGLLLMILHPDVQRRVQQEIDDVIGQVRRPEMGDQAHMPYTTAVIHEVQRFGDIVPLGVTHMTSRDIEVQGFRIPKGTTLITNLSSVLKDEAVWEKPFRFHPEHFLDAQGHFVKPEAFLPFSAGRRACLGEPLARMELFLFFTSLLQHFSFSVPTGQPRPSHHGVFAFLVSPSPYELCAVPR

[4] = system: OVCAR-8; assay: Growth inhibition of OVCAR-8 cells; type: cell-based; conditions: Homo sapiens, OVCAR-8, 96 h, read-out: IC50 ± SD OVCAR-8
[5] = Caco-2 cell permeability; type: in vitro ADME; conditions: human
[6] = system: U87MG cells; assay: ROS generation; type: cell-based, human; conditions: 400 mM H2O2, 1 h treatment

Row | Compound | inhibition at 30 min, 1 µM [3] | IC50 [2] | other results
1 | N#CC(C#N)=NNc1cccc(Cl)c1 [CCCP, carbonyl cyanide m-chlorophenylhydrazone] | – | – | mitochondrial potential dissipation [1]: about 50%
2 | COc1ccc(/C=C\c2cc(OC)c(OC)c(OC)c2)cc1O [Compound 2, combretastatin A-4] | – | > 2030 nM | –
3 | CC(=O)O[C@H]1C(=O)[C@@]2(C)[C@H]([C@H](OC(=O)c3ccccc3)[C@]3(O)C[C@H](OC(=O)[C@H](O)[C@@H](NC(=O)c4ccccc4)c4ccccc4)C(C)=C1C3(C)C)[C@]1(OC(C)=O)CO[C@@H]1C[C@@H]2O [PTX, paclitaxel] | – | 23 nM | –
4 | CC[C@]1(O)C[C@@H]2CN(CCc3c([nH]c4ccccc34)[C@@](C(=O)OC)(c3cc4c(cc3OC)N(C)[C@H]3[C@@](O)(C(=O)OC)[C@H](OC(C)=O)[C@]5(CC)C=CCN6CC[C@]43[C@@H]65)C2)C1 [VBL, vinblastine] | – | 17 nM | IC50 [4]: 15 ± 7 nM
5 | CN/C(=N/CCSCc1nc[nH]c1C)NC#N [cimetidine] | – | – | Papp A→B at 2 h, 10 μM [5]: 0.11 ×10⁻⁶ cm/s; Papp B→A at 2 h, 10 μM [5]: 2.13 ×10⁻⁶ cm/s
6 | OO [hydrogen peroxide] | – | – | ROS, fluorescence intensity with respect to control [6]: 208%

Further lines, with some results ahead:

Row | inhibition at 30 min, 1 µM [3] | Compound | IC50 [2] | other results
7 | < 50% | COc1cc(Sc2c(-n3ccnc3)[nH]c3ccccc23)cc(OC)c1OC [Compound 18, 2-(1H-Imidazol-1-yl)-3-((3,4,5-trimethoxyphenyl)thio)-1H-indole] | – | –
8 | < 50% | COc1cc(Sc2c(-n3cncn3)[nH]c3ccccc23)cc(OC)c1OC [Compound 20, 2-(1H-1,2,4-Triazol-1-yl)-3-((3,4,5-trimethoxyphenyl)thio)-1H-indole] | – | –
9 | < 50% | COc1cc(Sc2c(-c3cccnc3)[nH]c3ccccc23)cc(OC)c1OC [Compound 55, 2-(Pyridin-3-yl)-3-((3,4,5-trimethoxyphenyl)thio)-1H-indole] | – | –
10 | < 50% | COc1cc(Sc2c(-c3ccncc3)[nH]c3ccccc23)cc(OC)c1OC [Compound 57, 2-(Pyridin-4-yl)-3-((3,4,5-trimethoxyphenyl)thio)-1H-indole] | – | –
